Earlier results as cited in article PMC10855781 (International Journal of Molecular Sciences, 2024).

Legend:
[1] = system: Human cardiac myocytes (HCM); set-up: key: 0: no cardiotoxicity; +: weak; ++: moderate; +++: strong cardiotoxicity; conditions: long-term (0–72 h) cytotoxic effect, impedimetric; ref [75]
From the text: Table 2 Comparative study of cytotoxic effects and cardiotoxicity elicited by selected GnRH-based anthracycline conjugates. | column: Cardiotoxicity || The main drug-related toxic side effect of anthracyclines is cardiotoxicity, leading to cardiomyopathy and heart failure. Comparative experiments to determine the cardiotoxicity of peptide–anthracycline conjugates with different linkages might be informative for the other conjugates with different types of drugs as well. For this purpose, human cardiomyocytes (HCM) and human umbilical vein endothelial cells (HUVEC) were used as models. The long-term (0–72 h) cytotoxic effect of sixteen GnRH-based conjugates containing Dox and Dau was determined by real-time impedimetric sensing using th ...

DNA = conditions: apparent equilibrium binding constant; ref [72]
From the text: Figure 2 The equilibrium binding constants of daunomycin (Dau) and its oxime-linked amino acid derivatives to DNA. TEXT PRINTED IN THE PICTURE: Dau: K (x10^5)(M^−1): 11.7 | H-Lys(Dau=Aoa-OH): K (x10^5)(M^−1): 6.8 | Dau=Aoa-Gly-OH: K (x10^5)(M^−1): 6.74 | Dau=Aoa-Tyr-OH: K (x10^5)(M^−1): 4.4 | Dau=Aoa-Leu-OH: K (x10^5)(M^−1): 3.23

HT-29 human colon cancer [2] = conditions: ref [82]
From the text: Table 3 In vivo tumor growth inhibition of a few relevant Dau-GnRH-III conjugates. | column: HT-29 orth. SCID [%] || Starting from these promising results, Dau conjugates with further GnRH-III derivatives using different short-chain fatty acids (on the side chains of Lys in position 4) were developed. […] The experiment finished on day 30, but the animals in the group treated with Dau had to be sacrificed on day 23. […] However, these numbers cannot be directly compared because the termination days were different during the experiment. The toxicities of the compound ...

[3] = system: human breast adenocarcinoma (MCF-7); conditions: ref [75]
From the text: Table 2 Comparative study of cytotoxic effects and cardiotoxicity elicited by selected GnRH-based anthracycline conjugates. | column: IC50 Values (μM)

HT-29 tumor = conditions: ref [18]
Method: In our group, we synthesized conjugates based on a heptapeptide (VHLGYAT) selected by Zhang et al. and tested them on HT-29 human colon adenocarcinoma. Since sequence modification may result in different oxime-linked Dau-amino acid fragments, a cathepsin B- labile spacer was incorporated to the N-terminal of the homing peptide. From the parent compound (Dau=Aoa-LRRY-VHLGYAT-NH2), the potential positions that can be substituted were selected using Ala-scan. […] Statistical analysis was performed by Mann-Whitney test. *, ** and *** mean significant at p < 0.05, p < 0.01 and p < 0.001, respectively. Adapted with permission from ref. [18]. 2019, Elsevier. TEXT PRINTED IN THE PICTURE: (a) Dau: Tumour weight (g): 16% | (a) Parent: Tumour weight (g): 35% | (a) G/F exchange: Tumour weight (g): 11% | (b) Dau: Liver weight (g): 72% | (b) Parent: Liver weight (g): 101% | (b) G/F exchange: Liver weight (g): 90% | (c) Dau: Prol ...

[4] = system: human umbilical vein endothelial cells (HUVEC); set-up: key: 0: no cardiotoxicity; +: weak; ++: moderate; +++: strong cardiotoxicity; conditions: long-term (0–72 h) cytotoxic effect, impedimetric; ref [75]
From the text: Table 2 Comparative study of cytotoxic effects and cardiotoxicity elicited by selected GnRH-based anthracycline conjugates. | column: Cardiotoxicity

HT-29 human colon cancer [5] = conditions: SCID mice, single i.p. 2.5 mg/kg (4.43 μmol); ref [81]
Method: Table 3 In vivo tumor growth inhibition of a few relevant Dau-GnRH-III conjugates. | column: HT-29 ^b s.c. SCID [%] || In another experiment, HT-29 human colon cancer was developed s.c. in immunodeficient SCID mice. Dau and two conjugates (with or without a GFLG spacer between the GnRH-III homing peptide and the payload) were used for the treatment. The first i.p. administrations were performed on day 13 after tumor inoculation. All the mice treated once with 2.5 mg/kg body weight (4.43 μmol) free Dau died within 10 days. In contrast, the conjugates at a dose of 15 mg Dau content/kg body weight (26.6 μmol) that refers to 52 mg/kg [^8Lys(Dau=Aoa)]-GnRH-III and 62.5 mg/kg [^8Lys(Dau=Aoa-GFLG)]-GnRH-III co ...

C26 colon tumor = conditions: (w) tumor weight reduction, day 13; treatments days 4 and 7; conjugates 26.6 μmol/kg (15 mg Dau content), Dau 2 mg/kg; ref [82],[86]
Method: Table 3 In vivo tumor growth inhibition of a few relevant Dau-GnRH-III conjugates. | column: C26 orth. […] In the case of the C26 colon tumor-bearing female Balb/c mice, only a 7% reduction in tumor weight was detected on day 13 after the two treatments on days 4 and 7 with [^8Lys(Dau=Aoa)]-GnRH-III, at a 26.6 μmol/kg (15 mg Dau content) dose. […] It is worth ment ...

C26 murine colon cancer = conditions: ref [20]
Method: Table 3 In vivo tumor growth inhibition of a few relevant Dau-GnRH-III conjugates. | column: C26 ^a s.c. Balb/c [%] || In our experiments, GnRH-III was applied as a targeting peptide. […] The effect highly depended on the treatment schedule. In the first attempt, the conjugate was administered i.p. at a dose of 8.86 μmol (5 mg Dau-content/kg body weight) five times on days 7, 9, 11, 14 and 16 after tumor transplantation ...

## COc1cccc2c1C(=O)c1c(O)c3c(c(O)c1C2=O)C[C@@](O)(C(C)=O)C[C@@H]3O[C@H]1C[C@H](N)[C@H](O)[C@H](C)O1 [Dau, daunomycin]
[1]
  Cardiotoxicity, HCM: +++
DNA
  K, equilibrium binding constant to DNA: 1.17e+06 M⁻¹
HT-29 human colon cancer [2]; Dau 1 mg/kg i.v. weekly for 7 weeks
  relative liver weight loss in comparison with the controls: 11%
HT-29 human colon cancer [2]; conjugates 17.72 μmol (10 mg Dau content)/kg s.c. x7, end day 30, Dau 1 mg/kg days 7, 13, 20, sacrificed day 23
  tumor weight reduction: 84.3%
HT-29 human colon cancer [2]; conjugates 15 mg Dau content/kg i.v. x5 from day 5, then 7.5 mg i.p. x8, twice a week, Dau 1 mg/kg i.v. weekly for 7 weeks
  reduction in tumor weight: 29.7%
HT-29 human colon cancer [2]; same experiment as E44, average
  proliferation index compared to the controls: 98.6%
HT-29 human colon cancer [2]; same experiment as E44
  vascularization rate compared to the controls: 112.5%
HT-29 human colon cancer [2]; same experiment as E49
  rate of changes in the liver and body weights: 70.6%
[3]
  IC50: 400 ± 100 nM
HT-29 tumor; conjugates 10 mg/kg Dau content i.p. days 13, 16, 20, 23, 27, end day 30, Dau 1 mg/kg days 13 and 20, sacrificed day 23
  tumor weight reduction compared to the control group: 84%
HT-29 tumor; same experiment as E56
  decrease in liver weight vs controls: 28%
[4]
  Cardiotoxicity, HUVEC: +++
HT-29 human colon cancer [5]
  time within which all treated mice died: ≤ 10 days
C26 colon tumor
  C26 orth. Balb/c tumor growth inhibition (w): 24.4%
C26 murine colon cancer; free Dau 2 mg/kg (3.55 μmol) days 7, 9, 11, 14, 16, day 26
  tumor volume inhibition: 22.6%
C26 murine colon cancer; free Dau 2 mg/kg days 7, 9, 11, 14, 16
  median survival rate in comparison to the control group: 0.81
